Results from US20210164015A1, “ANTIMICROBIAL SUSCEPTIBILITY TESTING USING MICRODROPLETS” (Becton, Dickinson and Company, priority 2018, published 2021).

Tested on: E. coli
Assay: microdroplet antibiotic susceptibility testing (AST) using a fluorescent viability indicator
Type: cell-based
Settings: for fluorescence intensity of microdroplets (fluorescent viability indicator): E. coli encapsulated in microdroplets
Description: FIGS. 3A-3D depict results of an embodiment of microdroplet antibiotic susceptibility testing using a fluorescent viability indicator. FIG. 3A depicts change in fluorescent intensity in microdroplets at 1-hour, 2-hour, and 3-hour time points in samples without antibiotic (condition A) and samples with antibiotic at two times MIC (condition B). FIG. 3B depicts micrographs of microdroplets under the conditions of FIG. 3A.
Some embodiments provided herein relate to a first mode for determining microbial viability. A first mode for determining microbial viability is schematically depicted in FIG. 1. As described herein, a first mode for determining microbial viability includes providing a sample having microbes therein, dividing the sample into a number of portions, preparing microdroplets encapsulating microbes from the sample, either before or after the portions are formed (FIG. 1 depicts forming portions first), contacting each portion to a different concentration of an antimicrobial of interest either before or after preparing the microdroplets (FIG. 1 depicts adding an antibiotic prior to forming microdroplets), and measuring viability of the microbes by measuring a signal of microbial viability. Measuring a signal of microbial viability may be performed by obtaining a measure of microbial viability from a discrete subset of microdroplets, or a plurality of discrete subsets of microdroplets, from a population of microdroplets. The results for the measurements from discrete subsets of microdroplets at a first time point can then be combined to generate a result for the portion of the sample from which the microdroplet(s) were taken at this first time point. This process can be repeated at additional time points to determine microbial viability in that portion over time, thereby determining the susceptibility of the microbe to a given concentration of antimicrobial. Typically, it is not necessary to measure the exact same population of microdroplets at the first and subsequent time points, as long as the population of microdroplets measured at each time point are representative of the portion of the sample from which they are taken. The results from the various portions exposed to different concentrations of antimicrobial can then be used to determine the susceptibility of the microbe to the antimicrobial. […] Conversely, an increase in the measure of microbial viability over time indicates growth of microbes in the concentration of antimicrobial present in the portion of the sample from which the measurements were made. A minimum inhibitory concentration can be determined utilizing the results of antimicrobial susceptibility and/or microbe growth from the several portions of the sample exposed to different concentrations of antimicrobial. […]

CC1(C)S[C@@H]2[C@H](NC(=O)[C@H](N)c3ccccc3)C(=O)N2[C@H]1C(=O)O [ampicillin]
fluorescence intensity of microdroplets (fluorescent viability indicator) (antibiotic at 2×MIC (Condition B), 1 hour incubation (t1)): remained low | fluorescence intensity of microdroplets (fluorescent viability indicator) (antibiotic at 2×MIC (Condition B), 2 hours and 3 hours incubation (t2, t3)): remained low | E. coli growth in microdroplets (antibiotic at 2×MIC (Condition B), 2 hours and 3 hours, inferred from fluorescence intensity): no E. coli growth | presence of E. coli in micrographs of microdroplets (FIG. 3D) (microdroplets exposed to antibiotic at 2×MIC (Condition B)): no E. coli is present
